Source: PubChem BioAssay AID1259407 (Chemical Carcinogenesis Research Information System (CCRIS), 2018)
The source made the active and inactive calls. No rule for the calls is given here.

System: CCRIS mutagenicity, Ames/micronucleus/aberration tests
Assay: CCRIS mutagenicity studies
Conditions: Test System: AMES SALMONELLA TYPHIMURIUM, Method: PREINCUBATION

Measured: mutagenic call

CC(C)CCCCCOC(=O)C[S][Sn]([CH3])([S]CC(=O)OCCCCCC(C)C)[S]CC(=O)OCCCCCC(C)C
inactive: Strain/Indicator: TA97, Metabolic Activation: HAMSTER, LIVER, S-9, AROCLOR 1254 (10%) inactive; negative | Strain/Indicator: TA97, Metabolic Activation: HAMSTER, LIVER, S-9, AROCLOR 1254 (30%) inactive; negative | Strain/Indicator: TA97, Metabolic Activation: NONE inactive; negative | Strain/Indicator: TA97, Metabolic Activation: RAT, LIVER, S-9, AROCLOR 1254 (10%) inactive; negative | Strain/Indicator: TA97, Metabolic Activation: RAT, LIVER, S-9, AROCLOR 1254 (30%) inactive; negative | Strain/Indicator: TA98, Metabolic Activation: HAMSTER, LIVER, S-9, AROCLOR 1254 (10 OR 30%) inactive; negative | Strain/Indicator: TA98, Metabolic Activation: NONE inactive; negative | Strain/Indicator: TA98, Metabolic Activation: RAT, LIVER, S-9, AROCLOR 1254 (10 OR 30%) inactive; negative | Strain/Indicator: TA100, Metabolic Activation: HAMSTER, LIVER, S-9, AROCLOR 1254 (10 OR 30%) inactive; negative | Strain/Indicator: TA100, Metabolic Activation: NONE inactive; negative | Strain/Indicator: TA100, Metabolic Activation: RAT, LIVER, S-9, AROCLOR 1254 (10 OR 30%) inactive; negative | Strain/Indicator: TA1535, Metabolic Activation: HAMSTER, LIVER, S-9, AROCLOR 1254 (10%) inactive; negative | Strain/Indicator: TA1535, Metabolic Activation: HAMSTER, LIVER, S-9, AROCLOR 1254 (30%) inactive; negative | Strain/Indicator: TA1535, Metabolic Activation: NONE inactive; negative | Strain/Indicator: TA1535, Metabolic Activation: RAT, LIVER, S-9, AROCLOR 1254 (10%) inactive; negative | Strain/Indicator: TA1535, Metabolic Activation: RAT, LIVER, S-9, AROCLOR 1254 (30%) inactive; negative | Strain/Indicator: TA1537, Metabolic Activation: HAMSTER, LIVER, S-9, AROCLOR 1254 (30%) inactive; negative | Strain/Indicator: TA1537, Metabolic Activation: NONE inactive; negative | Strain/Indicator: TA1537, Metabolic Activation: RAT, LIVER, S-9, AROCLOR 1254 (30%) inactive; negative
